In US10639304B2, “Kinase inhibitors” (priority 2013, dated 2020):

Experiments:
[1] = system: leukemic cells derived from ALL, AML, CML and CLL; test: Initial analysis of cytotoxicity in leukemic cells; type: cell-based; details: for toxicity to the leukemic cells tested: initial analysis of 12 compounds ALD-1 through ALD-12; for anti-leukemic activity: structure-activity summary
Description: (§1) The cells were seeded at an initial density of 50,000 cells per well in 100 μl of cell culture media constituted with or without drugs at increasing doses ranging from 1 to 10^7 fold. The assays were performed in 96-well cell culture plates which were maintained at 37° C. in 5% CO2 atmosphere for 24 h, 48 h, 72 h and 96 h. At the end of each incubation point; cell viability was measured by Cell Titer-Blue® Assay. The measurements were then expressed as the percentage of viable cells compared to the survival of respective control groups (untreated cells) defined as the maximum cell viability. The data obtained was further analyzed using Prism nonlinear regression software (Graphpad Software) for the curve-fitting and determination of IC50 values.

[2] = system: Gleevec resistant K562 cells; test: Cytotoxicity in Gleevec resistant K562 cells (Cell Titer-Blue); type: cell-based; details: for IC50: Homo sapiens, K562
Description: Hela (established from epithelioid cervical carcinoma), were purchased from the American Type Culture Collection (ATCC, Manassas, Va.). SN12C and ACHN cells were provided by Dr. Charles Sawyers. […] Normal lymphocyte 9093 was purchased from ATCC. K562 and normal lymphocytes were maintained in RPMI media (Life Technologies) supplemented with 20% fetal bovine serum (FBS). […] All cells were maintained at 37° C. under a humidified atmosphere of 95% air and 5% CO2.
as §1

[3] = biological target: T1, T315I mutant Bcr-Abl (Homo sapiens, UniProt P00519, T315I); test: Bcr-Abl phosphorylation in K562 cells, Western blotting; type: cell-based; details: in the presence of Gleevec, FIGS. 5 and 6
T1 construct: K562 cells that express the T315I mutant Bcr-Abl; BCR (fusion partner, P11274 N-terminal part); endogenous in cells; host or cells: K562 (Gleevec-resistant); the other entry of the earlier key: BCR (P11274, Breakpoint cluster region protein)

[4] = biological target: T2, Src (Homo sapiens, UniProt P12931); test: Src phosphorylation in K562 cells, Western blotting; type: cell-based; details: FIGS. 9 and 10
T2 construct: reduced the levels of phosphorylated Src in K562 cells; endogenous in cells; host or cells: K562
T2 sequence (P12931 whole entry): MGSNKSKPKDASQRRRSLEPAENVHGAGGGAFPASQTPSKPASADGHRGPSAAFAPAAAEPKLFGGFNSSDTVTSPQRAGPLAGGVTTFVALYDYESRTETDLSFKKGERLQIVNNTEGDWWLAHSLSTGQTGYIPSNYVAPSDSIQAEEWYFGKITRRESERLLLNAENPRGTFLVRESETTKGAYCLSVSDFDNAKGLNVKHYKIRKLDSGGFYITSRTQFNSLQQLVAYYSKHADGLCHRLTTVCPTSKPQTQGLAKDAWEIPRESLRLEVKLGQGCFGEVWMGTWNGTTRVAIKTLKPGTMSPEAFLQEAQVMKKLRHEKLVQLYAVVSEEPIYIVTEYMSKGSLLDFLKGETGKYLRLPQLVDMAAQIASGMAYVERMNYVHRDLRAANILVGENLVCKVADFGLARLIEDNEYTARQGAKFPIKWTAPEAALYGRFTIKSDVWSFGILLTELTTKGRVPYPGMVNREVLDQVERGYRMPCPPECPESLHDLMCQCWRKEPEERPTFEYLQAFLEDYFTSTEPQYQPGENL

[5] = system: PARP cleavage in Gleevec-resistant CML cell lines; test: PARP cleavage (apoptosis marker), Western blotting; type: cell-based; details: FIG. 4
[6] = system: STAT5; test: STAT5 phosphorylation in K562 cells, Western blotting; type: cell-based; details: FIG. 7
[7] = system: Crkl; test: Crkl phosphorylation in K562 cells, Western blotting; type: cell-based; details: FIG. 8
[8] = biological target: T3, Lyn (Homo sapiens, UniProt P07948); test: Lyn phosphorylation in K562 cells, Western blotting; type: cell-based; details: FIG. 11
T3 construct: K562 cells were plated in 10 cm dishes; endogenous in cells; host or cells: K562
T3 sequence (P07948 whole entry): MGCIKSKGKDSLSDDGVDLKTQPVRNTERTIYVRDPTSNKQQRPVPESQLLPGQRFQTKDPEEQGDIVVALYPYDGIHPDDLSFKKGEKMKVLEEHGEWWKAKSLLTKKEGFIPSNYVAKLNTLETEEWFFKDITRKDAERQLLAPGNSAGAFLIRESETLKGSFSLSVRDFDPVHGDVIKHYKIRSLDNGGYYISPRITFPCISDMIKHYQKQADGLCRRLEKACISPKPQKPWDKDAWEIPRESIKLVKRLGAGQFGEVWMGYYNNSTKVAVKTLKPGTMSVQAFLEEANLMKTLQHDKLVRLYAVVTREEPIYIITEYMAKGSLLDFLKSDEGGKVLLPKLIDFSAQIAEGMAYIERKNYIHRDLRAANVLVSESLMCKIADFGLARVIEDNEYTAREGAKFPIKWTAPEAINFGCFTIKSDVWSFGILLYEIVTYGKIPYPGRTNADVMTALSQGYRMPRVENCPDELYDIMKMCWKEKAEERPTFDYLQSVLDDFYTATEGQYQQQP

[9] = biological target: T4, LCK (Homo sapiens, UniProt P06239); test: LCK phosphorylation in K562 cells, Western blotting; type: cell-based; details: FIG. 11
T4 construct: K562 cells were plated in 10 cm dishes; endogenous in cells; host or cells: K562
T4 sequence (P06239 whole entry): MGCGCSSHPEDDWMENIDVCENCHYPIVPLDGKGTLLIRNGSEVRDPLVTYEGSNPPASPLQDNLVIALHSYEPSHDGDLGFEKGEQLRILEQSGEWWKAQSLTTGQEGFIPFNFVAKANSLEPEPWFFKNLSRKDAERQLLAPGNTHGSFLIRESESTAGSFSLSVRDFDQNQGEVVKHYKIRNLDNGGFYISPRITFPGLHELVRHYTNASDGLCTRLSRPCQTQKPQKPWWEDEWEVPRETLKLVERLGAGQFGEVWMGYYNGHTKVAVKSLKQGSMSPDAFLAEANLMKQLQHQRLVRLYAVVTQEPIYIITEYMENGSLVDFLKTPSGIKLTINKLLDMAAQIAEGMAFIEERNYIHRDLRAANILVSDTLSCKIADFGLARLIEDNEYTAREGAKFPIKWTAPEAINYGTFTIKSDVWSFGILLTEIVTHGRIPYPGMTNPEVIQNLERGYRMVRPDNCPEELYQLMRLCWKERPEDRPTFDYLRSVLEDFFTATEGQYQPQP

[10] = biological target: T5, Yes (Homo sapiens, UniProt P07947); test: Yes phosphorylation in K562 cells, Western blotting; type: cell-based; details: FIG. 11
T5 construct: K562 cells were plated in 10 cm dishes; endogenous in cells; host or cells: K562
T5 sequence (P07947 whole entry): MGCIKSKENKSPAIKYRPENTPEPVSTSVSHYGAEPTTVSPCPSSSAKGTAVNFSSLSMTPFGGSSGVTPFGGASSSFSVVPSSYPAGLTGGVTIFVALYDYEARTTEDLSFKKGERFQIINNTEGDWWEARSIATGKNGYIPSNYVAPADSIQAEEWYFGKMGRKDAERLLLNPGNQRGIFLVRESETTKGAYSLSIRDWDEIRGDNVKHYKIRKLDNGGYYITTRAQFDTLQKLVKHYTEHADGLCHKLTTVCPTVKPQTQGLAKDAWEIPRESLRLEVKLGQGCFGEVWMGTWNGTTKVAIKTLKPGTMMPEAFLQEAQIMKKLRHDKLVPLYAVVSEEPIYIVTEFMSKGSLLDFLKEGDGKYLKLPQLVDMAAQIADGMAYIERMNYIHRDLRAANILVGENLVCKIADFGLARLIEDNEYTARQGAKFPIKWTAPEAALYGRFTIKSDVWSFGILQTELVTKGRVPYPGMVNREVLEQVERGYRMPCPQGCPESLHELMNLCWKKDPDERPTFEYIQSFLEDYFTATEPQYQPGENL

[11] = system: BV173-GFP, a Gleevec resistant chronic myeloid leukemic cells; test: Preclinical efficacy, BV173-GFP leukemia in NSG-B2m mice; type: in vivo; details: up to 250 mg/kg intraperitoneal for 5 weeks
Description: Two days after leukemia cell injection, the mice received intraperitoneal treatments of DMSO, or ALD-10 in DMSO. Following injection cells, the mice were randomized into two groups (6/group) to receive DMSO, or ALD-10. The mice received up to 250 mg/kg of ALD10 for 5 weeks. […] The median survival for ALD-10 and DMSO treated mice was 42 and 39 days, respectively.

[12] = system: Bcr-Abl; details: in vitro, more potent than imatinib; cited from earlier work

Row | phosphorylation of Bcr-Abl Kinase [3] | phosphorylation of Src [4] | phosphorylation of Lyn [8] | phosphorylation of Lck [9] | SMILES | toxicity to the leukemic cells tested [1] | anti-leukemic activity [1] | cytotoxicity to Gleevec resistant CML (GRCML) ([2]; Gleevec resistant CML, cell line not named) | IC50 [2] [nM] | PARP cleavage (apoptotic cell death) [5] | STAT5 phosphorylation [6] | CrkL phosphorylation [7] | phosphorylation of Yes [10] | activity of the mice compared to DMSO treated mice [11] | liver tumor mass compared to DMSO treated mice [11] | median survival ([11]; DMSO 39 days, Log-rank P=0.0036, Gehan-Breslow-Wilcoxon P=0.0045) [days] | survival (Kaplan-Meier) ([11]; DMSO treated 40 days) [days] | cytotoxicity (in words) ([2]; Gleevec resistant K562 cells, FIG. 1) | affinity for the ATP binding site on Bcr-Abl relative to imatinib [12]
1 | – | – | – | – | COC(=O)c1ccc(NC(=O)CSc2nc3cc4c(cc3cc2C)OCCO4)cc1 [ALD-1, 4-[2-(8-Methyl-2,3-dihydro-[1,4]dioxino[2,3-g]quinolin-7-ylsulfanyl)-acetylamino]-benzoic acid methyl ester] | non-toxic | – | – | – | – | – | – | – | – | – | – | – | – | –
2 | block phosphorylation | inhibited | – | – | CCc1cc2cc3c(cc2nc1SCC(=O)Nc1ccc(OC)cc1OC)OCCO3 [ALD-4, N-(2,4-Dimethoxy-phenyl)-2-(8-ethyl-2,3-dihydro-[1,4]dioxino[2,3-g]quinolin-7-ylsulfanyl)-acetamide] | toxic | anti-leukemic activity | highly cytotoxic | – | – | – | – | – | – | – | – | – | – | –
3 | – | did not affect | not | not | CCc1cc2cc3c(cc2nc1SCC(=O)Nc1ccc(OC)cc1)OCCO3 [ALD-11, 2-(8-Ethyl-2,3-dihydro-[1,4]dioxino[2,3-g]quinolin-7-ylsulfanyl)-N-(4-methoxy-phenyl)-acetamide] | non-toxic | inactive | – | – | did not reveal PARP cleavage | did not affect | did not affect | – | – | – | – | – | not cytotoxic | –
4 | block phosphorylation | inhibited | significantly inhibited | significantly inhibited | CCc1cc2cc3c(cc2nc1SCC(=O)Nc1ccccc1OC)OCCO3 [ALD-12, 2-(8-ethyl-2,3-dihydro-[1,4]dioxino[2,3-g]quinolin-7-ylsulfanyl)-N-(2-methoxy-phenyl)-acetamide] | toxic | anti-leukemic activity | – | 69.7 | induction of PARP cleavage | inhibited | inhibited | significantly inhibited | – | – | – | – | – | –
5 | – | – | – | – | Cc1cn(-c2cc(NC(=O)c3ccc(C)c(Nc4nccc(-c5cccnc5)n4)c3)cc(C(F)(F)F)c2)cn1 [Nilotinib] | – | – | – | – | – | – | – | – | – | – | – | – | – | up to 50 times

Row | SMILES | phosphorylation of Bcr-Abl Kinase [3] | phosphorylation of Src [4] | phosphorylation of Lyn [8] | phosphorylation of Lck [9] | toxicity to the leukemic cells tested [1] | anti-leukemic activity [1] | cytotoxicity to Gleevec resistant CML (GRCML) ([2]; Gleevec resistant CML, cell line not named) | IC50 [2] [nM] | PARP cleavage (apoptotic cell death) [5] | STAT5 phosphorylation [6] | CrkL phosphorylation [7] | phosphorylation of Yes [10] | activity of the mice compared to DMSO treated mice [11] | liver tumor mass compared to DMSO treated mice [11] | median survival ([11]; DMSO 39 days, Log-rank P=0.0036, Gehan-Breslow-Wilcoxon P=0.0045) [days] | survival (Kaplan-Meier) ([11]; DMSO treated 40 days) [days] | cytotoxicity (in words) ([2]; Gleevec resistant K562 cells, FIG. 1) | affinity for the ATP binding site on Bcr-Abl relative to imatinib [12]
6 | CCc1cc2cc3c(cc2nc1SCC(=O)Nc1ccccc1C)OCCO3 [ALD-10, 2-(8-Ethyl-2,3-dihydro-[1,4]dioxino[2,3-g]quinolin-7-ylsulfanyl)-N-o-tolyl-acetamide] | block phosphorylation | inhibited | significantly inhibited | significantly inhibited | toxic | anti-leukemic activity | – | 74.6 | induction of PARP cleavage | inhibited | inhibited | significantly inhibited | considerably more active | reduced liver tumor mass | 42 | 48 | – | –
